In paper PMC9863562, “Design, Synthesis, and Biological Evaluation of 2-Mercaptobenzoxazole Derivatives as Potential Multi-Kinase Inhibitors” (Pharmaceuticals, 2023):

Experiments:
[1] = system: HeLa cells (epithelioid cervix carcinoma); experiment: MTT cytotoxicity assay, HeLa; type: cell-based; settings: Homo sapiens, 24 h treatment, read-out: In Vitro Cytotoxicity IC50 Hela
Procedure: (§1) After incubation, the cells were treated with various concentrations of the synthesized compounds and incubated for an additional 24 h. Following the drug treatment, 20 µL of 5 mg/mL MTT solution was added and incubated for 4 h. To dissolve the purple formazan that had formed, 100 µL dimethyl sulfoxide (DMSO) was added to each well. […] The percentage of relative cell viability was counted using the following formula (A570 of handled specimens/A570 of the unhandled specimen), multiplied by 100.

[2] = system: MCF-7 cells (mammary gland cancer); experiment: MTT cytotoxicity assay, MCF-7; type: cell-based; settings: Homo sapiens, MCF7, 24 h treatment, read-out: In Vitro Cytotoxicity IC50 MCF-7
Procedure: as §1

Human VEGFR-2 = target: T1, Human VEGFR-2 (Homo sapiens, UniProt P35968); experiment: In vitro VEGFR-2 enzyme assay (ELISA kit); type: biochemical; settings: read-out: IC50 VEGFR2
T1 construct: purchased
T1 sequence (P35968 20-1356): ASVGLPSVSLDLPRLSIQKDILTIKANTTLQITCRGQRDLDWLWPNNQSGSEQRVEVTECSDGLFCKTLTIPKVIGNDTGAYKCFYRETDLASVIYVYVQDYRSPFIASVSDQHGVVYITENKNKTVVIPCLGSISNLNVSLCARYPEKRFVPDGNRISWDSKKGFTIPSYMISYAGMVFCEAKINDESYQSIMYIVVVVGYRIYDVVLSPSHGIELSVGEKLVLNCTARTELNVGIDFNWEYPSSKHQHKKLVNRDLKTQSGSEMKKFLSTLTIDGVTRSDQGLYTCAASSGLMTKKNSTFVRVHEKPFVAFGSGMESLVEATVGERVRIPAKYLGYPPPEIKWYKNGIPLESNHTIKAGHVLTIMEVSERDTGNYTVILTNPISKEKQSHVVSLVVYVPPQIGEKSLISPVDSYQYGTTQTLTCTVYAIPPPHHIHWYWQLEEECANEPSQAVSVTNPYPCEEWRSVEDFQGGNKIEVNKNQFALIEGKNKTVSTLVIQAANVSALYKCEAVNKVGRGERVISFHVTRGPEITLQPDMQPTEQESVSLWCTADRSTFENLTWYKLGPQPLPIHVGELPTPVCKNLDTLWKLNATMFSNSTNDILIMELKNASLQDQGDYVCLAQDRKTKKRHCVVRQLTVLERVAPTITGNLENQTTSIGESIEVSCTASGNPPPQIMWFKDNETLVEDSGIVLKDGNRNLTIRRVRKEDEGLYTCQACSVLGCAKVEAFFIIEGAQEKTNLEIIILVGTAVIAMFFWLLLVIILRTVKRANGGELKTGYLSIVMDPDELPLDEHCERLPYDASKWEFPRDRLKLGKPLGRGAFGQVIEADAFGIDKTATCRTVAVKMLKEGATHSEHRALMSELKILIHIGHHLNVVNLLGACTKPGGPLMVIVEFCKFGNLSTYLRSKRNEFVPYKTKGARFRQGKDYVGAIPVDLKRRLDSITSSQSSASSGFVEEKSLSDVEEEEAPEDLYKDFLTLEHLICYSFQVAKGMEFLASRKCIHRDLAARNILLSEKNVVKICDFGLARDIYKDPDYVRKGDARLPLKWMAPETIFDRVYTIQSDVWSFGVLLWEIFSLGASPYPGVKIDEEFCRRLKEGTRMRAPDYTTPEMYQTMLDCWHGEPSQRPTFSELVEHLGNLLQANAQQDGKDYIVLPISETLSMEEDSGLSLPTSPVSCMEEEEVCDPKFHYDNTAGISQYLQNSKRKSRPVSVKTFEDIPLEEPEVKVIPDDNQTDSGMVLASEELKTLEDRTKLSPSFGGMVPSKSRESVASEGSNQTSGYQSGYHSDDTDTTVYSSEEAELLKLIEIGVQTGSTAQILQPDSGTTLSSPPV
Procedure: (§2) Compound 6b was biologically evaluated for its inhibitory effect against CDK2, EGFR, HER2, and VEGFR-2. Human CDK2, EGFR, HER2, and VEGFR-2 ELISA kits (Enzyme-Linked-Immunosorbent Serologic Assay) were used during this evaluation. At first, specified antibody proteins were added separately to a 96-well plate, then 0.1 mL of the standard solution or the evaluated molecule was added; these were then incubated for 2.5 h at RT. After rinsing, 100 μL of the ready-made biotin antibody protein was added, then incubated for one extra hour at room temperature and, finally, washed. Next, 100 μL of streptavidin solution was added, incubated at room temperature for 45 min, and then washed. Next, 100 μL of the TMB substrate reagent was added and incubated for 0.5 h at RT, followed by adding 50 μL of the stop solution. The absorbance of the ELISA plate was promptly measured at 450 nm using the ELISA plate reader. The standard curve that was generated had absorbances on the Y-axis and concentrations on the X-axis.

Human HER2 = target: T2, Human HER2 (Homo sapiens, UniProt P04626); experiment: In vitro HER2 enzyme assay (ELISA kit); type: biochemical
T2 construct: purchased
T2 sequence (P04626 23-1255): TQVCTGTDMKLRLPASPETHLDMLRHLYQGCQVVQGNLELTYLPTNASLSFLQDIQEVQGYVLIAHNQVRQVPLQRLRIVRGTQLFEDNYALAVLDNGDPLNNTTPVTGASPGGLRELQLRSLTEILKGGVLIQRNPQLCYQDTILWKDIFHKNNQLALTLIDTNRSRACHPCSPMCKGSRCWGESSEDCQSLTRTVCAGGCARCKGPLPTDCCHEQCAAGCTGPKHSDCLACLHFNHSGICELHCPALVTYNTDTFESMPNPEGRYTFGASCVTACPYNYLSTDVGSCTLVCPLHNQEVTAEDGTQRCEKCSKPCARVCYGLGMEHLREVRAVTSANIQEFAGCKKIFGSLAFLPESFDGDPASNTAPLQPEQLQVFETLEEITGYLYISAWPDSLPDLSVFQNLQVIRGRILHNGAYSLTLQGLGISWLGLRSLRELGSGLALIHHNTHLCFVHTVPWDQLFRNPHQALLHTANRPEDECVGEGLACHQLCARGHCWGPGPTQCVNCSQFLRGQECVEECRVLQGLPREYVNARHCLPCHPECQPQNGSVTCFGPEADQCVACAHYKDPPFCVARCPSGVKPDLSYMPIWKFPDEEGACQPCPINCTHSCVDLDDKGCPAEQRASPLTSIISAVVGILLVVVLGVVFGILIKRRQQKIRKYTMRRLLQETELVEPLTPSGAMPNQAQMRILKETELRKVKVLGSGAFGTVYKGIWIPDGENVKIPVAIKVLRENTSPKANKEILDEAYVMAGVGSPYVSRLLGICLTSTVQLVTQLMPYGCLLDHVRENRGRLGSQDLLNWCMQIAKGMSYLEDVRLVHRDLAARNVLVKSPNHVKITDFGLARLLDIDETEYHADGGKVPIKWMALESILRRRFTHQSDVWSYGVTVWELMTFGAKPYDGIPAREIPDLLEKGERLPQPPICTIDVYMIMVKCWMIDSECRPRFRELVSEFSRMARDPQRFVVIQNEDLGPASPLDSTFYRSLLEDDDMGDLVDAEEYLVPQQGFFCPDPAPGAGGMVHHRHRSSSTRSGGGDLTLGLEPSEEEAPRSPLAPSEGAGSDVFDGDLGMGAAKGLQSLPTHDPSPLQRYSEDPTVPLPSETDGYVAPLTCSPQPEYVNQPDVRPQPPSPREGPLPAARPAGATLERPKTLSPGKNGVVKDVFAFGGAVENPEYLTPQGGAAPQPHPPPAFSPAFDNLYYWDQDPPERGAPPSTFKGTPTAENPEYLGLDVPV
Procedure: as §2, with “Human” for “Compound 6b was biologically evaluated for its inhibitory effect against CDK2, EGFR, HER2, and VEGFR-2. Human”, “reader.” for “reader. The standard curve that was generated had absorbances on the Y-axis and concentrations on the X-axis.”

[3] = system: HepG2 cells (hepatocellular carcinoma); experiment: MTT cytotoxicity assay, HepG2; type: cell-based; settings: Homo sapiens, HepG2, 24 h, 24 h treatment, read-out: In Vitro Cytotoxicity IC50 HepG2
From the text: The in vitro cytotoxicity for the final target compounds, 4(a–d), 5(a–f), and 6(a–b), was preliminarily evaluated via the MTT colorimetric assay against a panel of four human cell lines, namely, the hepatocellular carcinoma (HepG2), mammary gland (MCF-7), breast cancer (MDA-MB-231) and epithelioid cervix carcinoma (HeLa).
The cytotoxicity of the target hybrids was examined by an MTT assay against HepG2, HeLa, MCF-7, and MDA-MB-231. At first, the RPMI-1640 medium with 10% fetal bovine serum was used to cultivate the cell lines. Then, antibiotics (penicillin (100 units/mL) and streptomycin (100 µg/mL)) were added in a 37 °C incubator in 5% CO2. The cell lines were seeded in a 96-well plate at a density of 1.0 × 10^4 cells/well at 37 °C under 5% CO2 for 48 h. After incubation, the cells were treated with various concentrations of the synthesized compounds and incubated for an additional 24 h. Following the drug treatment, 20 µL of 5 mg/mL MTT solution was added and incubated for 4 h. To dissolve the purple formazan that had formed, 100 µL dimethyl sulfoxide (DMSO) was added to each well. At a wavelength of 570 nm, the colorimetric assay was recorded and measured, using a plate reader BioTek EXL 800 (Agilent Technologies, Inc., Santa Clara, CA, USA). The percentage of relative cell viability was counted using the following formula (A570 of handled specimens/A570 of the unhandled specimen), multiplied by 100. The results of the cytotoxicity value were presented as the median growth inhibitory concentration (IC50) of the reagents compared to the control.

Human CDK2 = target: T3, Human CDK2 (Homo sapiens, UniProt P24941); experiment: In vitro CDK2 enzyme assay (ELISA kit); type: biochemical
T3 construct: purchased
Procedure: as §2, with “Human” for “Compound 6b was biologically evaluated for its inhibitory effect against CDK2, EGFR, HER2, and VEGFR-2. Human”, “reader.” for “reader. The standard curve that was generated had absorbances on the Y-axis and concentrations on the X-axis.”

[4] = system: MDA-MB-231 cells (breast cancer); experiment: MTT cytotoxicity assay, MDA-MB-231; type: cell-based; settings: Homo sapiens, 24 h treatment, read-out: In Vitro Cytotoxicity IC50 MDA-MB-231
Procedure: as §1

HepG2 cells = experiment: Annexin V-FITC/PI dual-staining apoptosis analysis; type: cell-based, human; settings: HepG2, 6b at 6.83 μM, 24 h
Procedure: To identify the mode of cell death promoted by compound 6b within the liver cancer cells (HepG2), apoptosis rate analysis was performed, following 24 h of exposure. […] Moreover, the average proportion of Annexin-V-stained positive cells (total apoptotic cells) was elevated from 2.02% within the untreated cells to 16.84% within the treated ones. […] The provided findings are supported by the previous cell cycle analysis, confirming the potentiality of 6b as a promising anticancer agent (see Table 6 and Figure 6).
Apoptosis analysis was employed to evaluate the apoptotic effect of compound 6b. […] These stained cells were evaluated using flow cytometry equipment Epics XL-MCL™ (Beckman Coulter, Apeldoorn, Netherlands) with an excitation wavelength of 488 nm and an emission wavelength of 530 nm. The results were then analyzed with the Flowing software.

IC50 (Human VEGFR-2): 565 ± 25 nM | IC50 (Human HER2): 224 ± 13 nM | IC50 (Human CDK2): 886 ± 46 nM
SMILES: O=C(CSc1nc2ccccc2o1)NN=Cc1ccc[nH]1 (mixture of isomers) [Compound 6b, (E/Z)-N′-((1H-pyrrol-2-yl)methylene)-2-(benzo[d]oxazol-2-ylthio)acetohydrazide]
IC50 [1]: 5180 ± 500 nM | IC50 [2]: 3640 ± 200 nM | IC50 [3]: ~6830 nM | IC50 [4]: 2140 ± 100 nM | Early Apoptosis (Lower Right %) (HepG2 cells): 1.64% | Late Apoptosis (Upper Right %) (HepG2 cells): 10.91% | Total (%) apoptotic cells (HepG2 cells): 16.84%
